Test results reported in article PMC10482267, “Safety, tolerability, pharmacokinetics, and pharmacodynamics of single and multiple doses of aficamten in healthy Chinese participants: a randomized, double-blind, placebo-controlled, phase 1 study” (Frontiers in Pharmacology, 2023).
Where two headings read alike, the source gives them in different places.

Assays:
[1] = test system: healthy Chinese participants; test: Safety assessments (treatment-emergent adverse events); assay type: in vivo, human; conditions: for safety and tolerability, in words: single dose of 10 mg or 20 mg and multiple doses of 5 mg, oral
Experimental: Safety was evaluated based on the occurrence, frequency, and severity of adverse events (AEs). Routine clinical laboratory tests, 12‐lead ECGs, physical examinations, and vital signs (blood pressure, pulse rate, and body temperature) were performed at initial screening, day 1, during the treatment period until discharge or early termination. The AEs were monitored from the initial administration to the last follow-up after the last treatment. The AEs were assessed by the investigators with regard to severity (mild, moderate, severe, and life‐threatening) and the relationship to study treatment (reasonably or possibly related and not reasonably or not possibly related).

[2] = Urine pharmacokinetics of aficamten, MD cohort; assay type: in vivo, human; conditions: for Ae(0–24) (amount excreted unchanged in urine) / CL renal: MD 5 mg, mean ± SD; for CL renal: human, urine, oral, 5 mg, read-out: CLr (renal clearance) (converted)
Experimental: Blood samples (4 mL) for plasma PK analysis of aficamten and its metabolites (mono-hydroxylated derivative CK-3834282 and its diastereomer CK-3834283) were collected into K2EDTA tubes in the SAD cohorts at the following time points: at pre-dose and at 0.25, 0.5, 1, 1.5, 2, 2.5, 3, 4, 6, 8, 12, 16, 24, 36, 48, 72, 96, and 216 h post-dose. In the MD cohort, blood samples were collected at pre-dose and at 0.25, 0.5, 1, 1.5, 2, 2.5, 3, 4, 6, 8, 12, and 16 h post-dose on day 1; at pre-dose and at 1.5 h post-dose on day 2, days 4–6, and day 9; at pre-dose on day 3, days 7–8, and days 10–13; at pre-dose and at 0.25, 0.5, 1, 1.5, 2, 2.5, 3, 4, 6, 8, 12, 16, 24, 36, 48, 72, 168, and 216 h post-dose on day 14. After collection, blood samples were centrifuged at 1700 g for 10 min at 4°C ± 2°C; plasma was aliquoted and stored at −80°C ± 20°C until analyzed. Meanwhile, samples for urine PK analysis of aficamten were collected in the MD cohort as follows: pre-dose, 0–4 h, 4–8 h, 8–12 h, and 12–24 h on days 1 and 14, respectively.
The samples were determined using a validated ultra-performance liquid chromatography-tandem mass spectrometry (UPLC-MS/MS) method. The detection was performed on a tandem mass spectrometer in the electrospray ionization (ESI)-positive mode. The multiple reactions monitoring (MRM) mode was applied to monitor the following ion transitions: m/z 338.2→213.2 for aficamten and m/z 354.3→ 229.3 for metabolite CK-3834282 and its diastereomer CK-3834283. Note that the diastereomers were separated from chromatography during the analysis. The calibration curves of the plasma and urine samples were linear, ranging from 1 to 500 ng/mL, and the intra- and inter-run accuracies (RE%) and precisions (RSD%) were within ±15%. In addition, the selectivity, matrix effect, extraction recovery, carryover, and stability at different conditions were also fully evaluated.
The urine PK parameters (MD cohort) were calculated as follows: CLR (renal clearance), Ae (amount of drug excreted unchanged in the urine), and Fe (percentage of drug excreted unchanged in the urine).

## CCc1nc(-c2ccc3c(c2)CC[C@H]3NC(=O)c2cnn(C)c2)no1 [aficamten]
[1]; MD 5 mg (N = 9)
  TEAE Alanine aminotransferase increased, Number (%) of Subjects: 0 Number (%)
  TEAE Blood bilirubin increased, Number (%) of Subjects: 0 Number (%)
  TEAE Blood creatine phosphokinase increased, Events: 1
  TEAE Blood creatine phosphokinase increased, Number (%) of Subjects: 1(11.1) Number (%)
  TEAE Blood creatinine increased, Events: 1
  TEAE Blood creatinine increased, Number (%) of Subjects: 1(11.1) Number (%)
  TEAE Blood sodium decreased, Events: 1
  TEAE Blood sodium decreased, Number (%) of Subjects: 1(11.1) Number (%)
  TEAE Cardiac disorders (SOC), Number (%) of Subjects: 0 Number (%)
  TEAE Chest discomfort, Number (%) of Subjects: 0 Number (%)
  TEAE Conjugated bilirubin increased, Events: 2
  TEAE Conjugated bilirubin increased, Number (%) of Subjects: 2(22.2) Number (%)
  TEAE Gamma-glutamyltransferase increased, Number (%) of Subjects: 0 Number (%)
  TEAE Gastrointestinal disorders (SOC), Number (%) of Subjects: 0 Number (%)
  TEAE General disorders and administration site conditions (SOC), Number (%) of Subjects: 0 Number (%)
  TEAE Heart rate decreased, Number (%) of Subjects: 0 Number (%)
  TEAE Investigations (SOC), Events: 13
  TEAE Investigations (SOC), Number (%) of Subjects: 6(66.7) Number (%)
  TEAE Nausea, Number (%) of Subjects: 0 Number (%)
  TEAE Neutrophil count decreased, Events: 2
  TEAE Neutrophil count decreased, Number (%) of Subjects: 1(11.1) Number (%)
  TEAE Neutrophil count increased (first line, r9), Events: 1
  TEAE Neutrophil count increased (first line, r9), Number (%) of Subjects: 1(11.1) Number (%)
  TEAE Neutrophil count increased (second line, r18), Events: 1
  TEAE Neutrophil count increased (second line, r18), Number (%) of Subjects: 1(11.1) Number (%)
  TEAE Rash, Events: 1
  TEAE Rash, Number (%) of Subjects: 1(11.1) Number (%)
  TEAE Skin and subcutaneous tissue disorders (SOC), Events: 1
  TEAE Skin and subcutaneous tissue disorders (SOC), Number (%) of Subjects: 1(11.1) Number (%)
  TEAE Systolic blood pressure decreased, Events: 3
  TEAE Systolic blood pressure decreased, Number (%) of Subjects: 2(22.2) Number (%)
  TEAE Ventricular hypokinesia, Number (%) of Subjects: 0 Number (%)
  TEAE White blood cell count decreased, Number (%) of Subjects: 0 Number (%)
  TEAE White blood cell count increased, Events: 1
  TEAE White blood cell count increased, Number (%) of Subjects: 1(11.1) Number (%)
  TEAEs, Events: 14
  TEAEs, Number (%) of Subjects: 6(66.7) Number (%)
[1]; SAD 10 mg (N = 6)
  TEAE Alanine aminotransferase increased, Number (%) of Subjects: 0 Number (%)
  TEAE Blood bilirubin increased, Number (%) of Subjects: 0 Number (%)
  TEAE Blood creatine phosphokinase increased, Number (%) of Subjects: 0 Number (%)
  TEAE Blood creatinine increased, Number (%) of Subjects: 0 Number (%)
  TEAE Blood sodium decreased, Number (%) of Subjects: 0 Number (%)
  TEAE Cardiac disorders (SOC), Events: 1
  TEAE Cardiac disorders (SOC), Number (%) of Subjects: 1(16.7) Number (%)
  TEAE Chest discomfort, Number (%) of Subjects: 0 Number (%)
  TEAE Conjugated bilirubin increased, Number (%) of Subjects: 0 Number (%)
  TEAE Gamma-glutamyltransferase increased, Number (%) of Subjects: 0 Number (%)
  TEAE Gastrointestinal disorders (SOC), Number (%) of Subjects: 0 Number (%)
  TEAE General disorders and administration site conditions (SOC), Number (%) of Subjects: 0 Number (%)
  TEAE Heart rate decreased, Number (%) of Subjects: 0 Number (%)
  TEAE Investigations (SOC), Events: 2
  TEAE Investigations (SOC), Number (%) of Subjects: 1(16.7) Number (%)
  TEAE Nausea, Number (%) of Subjects: 0 Number (%)
  TEAE Neutrophil count decreased, Events: 1
  TEAE Neutrophil count decreased, Number (%) of Subjects: 1(16.7) Number (%)
  TEAE Neutrophil count increased (first line, r9), Number (%) of Subjects: 0 Number (%)
  TEAE Neutrophil count increased (second line, r18), Number (%) of Subjects: 0 Number (%)
  TEAE Rash, Number (%) of Subjects: 0 Number (%)
  TEAE Skin and subcutaneous tissue disorders (SOC), Number (%) of Subjects: 0 Number (%)
  TEAE Systolic blood pressure decreased, Number (%) of Subjects: 0 Number (%)
  TEAE Ventricular hypokinesia, Events: 1
  TEAE Ventricular hypokinesia, Number (%) of Subjects: 1(16.7) Number (%)
  TEAE White blood cell count decreased, Events: 1
  TEAE White blood cell count decreased, Number (%) of Subjects: 1(16.7) Number (%)
  TEAE White blood cell count increased, Number (%) of Subjects: 0 Number (%)
  TEAEs, Events: 3
  TEAEs, Number (%) of Subjects: 1(16.7) Number (%)
[1]; SAD 20 mg (N = 6)
  TEAE Alanine aminotransferase increased, Number (%) of Subjects: 0 Number (%)
  TEAE Blood bilirubin increased, Events: 1
  TEAE Blood bilirubin increased, Number (%) of Subjects: 1(16.7) Number (%)
  TEAE Blood creatine phosphokinase increased, Number (%) of Subjects: 0 Number (%)
  TEAE Blood creatinine increased, Number (%) of Subjects: 0 Number (%)
  TEAE Blood sodium decreased, Number (%) of Subjects: 0 Number (%)
  TEAE Cardiac disorders (SOC), Number (%) of Subjects: 0 Number (%)
  TEAE Chest discomfort, Events: 2
  TEAE Chest discomfort, Number (%) of Subjects: 1(16.7) Number (%)
  TEAE Conjugated bilirubin increased, Events: 2
  TEAE Conjugated bilirubin increased, Number (%) of Subjects: 2(33.3) Number (%)
  TEAE Gamma-glutamyltransferase increased, Number (%) of Subjects: 0 Number (%)
  TEAE Gastrointestinal disorders (SOC), Events: 1
  TEAE Gastrointestinal disorders (SOC), Number (%) of Subjects: 1(16.7) Number (%)
  TEAE General disorders and administration site conditions (SOC), Events: 2
  TEAE General disorders and administration site conditions (SOC), Number (%) of Subjects: 1(16.7) Number (%)
  TEAE Heart rate decreased, Events: 2
  TEAE Heart rate decreased, Number (%) of Subjects: 1(16.7) Number (%)
  TEAE Investigations (SOC), Events: 7
  TEAE Investigations (SOC), Number (%) of Subjects: 4(66.7) Number (%)
  TEAE Nausea, Events: 1
  TEAE Nausea, Number (%) of Subjects: 1(16.7) Number (%)
  TEAE Neutrophil count decreased, Number (%) of Subjects: 0 Number (%)
  TEAE Neutrophil count increased (first line, r9), Number (%) of Subjects: 0 Number (%)
  TEAE Neutrophil count increased (second line, r18), Number (%) of Subjects: 0 Number (%)
  TEAE Rash, Number (%) of Subjects: 0 Number (%)
  TEAE Skin and subcutaneous tissue disorders (SOC), Number (%) of Subjects: 0 Number (%)
  TEAE Systolic blood pressure decreased, Events: 2
  TEAE Systolic blood pressure decreased, Number (%) of Subjects: 2(33.3) Number (%)
  TEAE Ventricular hypokinesia, Number (%) of Subjects: 0 Number (%)
  TEAE White blood cell count decreased, Number (%) of Subjects: 0 Number (%)
  TEAE White blood cell count increased, Number (%) of Subjects: 0 Number (%)
  TEAEs, Events: 10
  TEAEs, Number (%) of Subjects: 4(66.7) Number (%)
[1]; all cohorts
  deaths, SAEs, AESIs, discontinuations due to TEAEs, LVEF <50%: no deaths, serious adverse events (SAEs)
  severity of TEAEs: mild
[1]
  safety and tolerability, in words: well-tolerated
[1]; listed as Aficamten
  safety and tolerability, in words: safe and well-tolerated
[2]; day 1, urine
  Ae(0–24) (amount excreted unchanged in urine): 3.2 ± 2.6 µg
  CL renal: 0.158 mL/min
[2]; day 14, urine
  Ae(0–24) (amount excreted unchanged in urine): 18.5 ± 8.0 µg
  CL renal: 0.228 mL/min
[2]; multiple doses of 5 mg
  drug excreted with urine in unchanged form: about 0.37%
